Data taken from patent EP1935986B1, “Luminogenic and fluorogenic compounds and methods to detect molecules or conditions” (priority 2005, dated 2006).

Assays:
[1] = test system: thermostable luciferase (Luc 146-1H2); test: Residual thermostable luciferase activity after reaction with luciferin derivatives (Steady Glo); format: biochemical; conditions: Substrate 100
Protocol: This stock was used to produce enzyme stock solution having of 200 µg/ml enzyme solution in 1 mg/ml BSA, 200 mM HEPES buffer, pH 8.0, 20 mM MgCl2.
Solutions were made using a 1 M DTT solution, pH adjusted to 8.0, a 20 mM Coenzyme A solution in water (both described in examples above), a 100 mM ATP solution and water to create the following solutions: Sol'A, 100 µM ATP; Sol'B, 100 µM ATP, 4 mM Coenzyme A; Sol'n C, 100 µM ATP, 400 mM DTT, and; Sol'n D, 100 µM ATP, 4 mM Coenzyme A and 400 mM DTT.
After assembly, the reactions were initiated by addition of 25 µl of the thermostable luciferase stock solution above and mixing the tube contents. A 50 µl sample was immediately removed and placed in a luminometer tube and the light read and the tube then replaced in a tube rack at room temperature. While the light reading was being taken, a 5 µl sample of the remaining reaction (which was kept at room temperature) was diluted into 495 µl of 50 mM BisTris, pH 6.5, 1 mg/ml BSA, 1 mM EDTA prechilled to 4°C and the tube mixed and placed on ice. The light produced by the samples in the luminometer tubes were re-read at 20, 40, 60, 90 and 120 minutes post enzyme addition. Additional 5 µl samples were taken and diluted as above at 60 and 120 minutes post enzyme addition. Once all these readings and samples were taken, 50 µl of the diluted samples was mixed with 50 µl of Steady Glo in luminometer tubes, the tubes incubated 10 minutes on ice then the light produced was read on a Turner TD 20/20 luminometer.

[2] = test system: calf intestinal alkaline phosphatase; test: Luminescent alkaline phosphatase assay with AP 4, luciferase and ATP; format: biochemical; conditions: 1 µM AP 4
Protocol: Alkaline Phosphatase (Promega Corp. M1821) was diluted in 50 mM Tris Cl, pH 9.3, 1 mM MgCl2, 0.1 mM ZnCl2 to a concentration of 1 fmol/µl to 0.01 zeptomole/µl.
A reaction solution was assembled containing 1 µM AP 4 (Figure 69); 100 µg/ml of the thermostable luciferase, 2 mM ATP; 10 mM MgCl2; 100 µM ZnCl2 in 50 mM Tris Cl, pH 8.5. This solution was allowed to incubate for 1 hour at room temperature to reduce background light production.
Quadruplicate wells in a luminometer plate (Nunc Maxisorb plate) were given 10 µl of the diluted alkaline phosphatase stocks and 100 µl of reaction solution. The plate was incubated at room temperature for 30 minutes, then the light produced by the solutions was measured using a Veritas Luminometer.

[3] = test system: luciferase; test: No-enzyme control: activity of luciferase towards the luciferin derivative (background luminescence)
Protocol: The reactions (Table 1) were assembled by first adding the water and 1 M BisTris solutions in individual 0.5 ml microfuge tubes, then adding the other components except for the GST #3 solution. Finally, the GST #3 (Figure 12) solution was added to the reactions, the resulting solution was mixed, and the time of addition noted. […]
The GST #3 addition was performed last and the solutions were mixed immediately after addition of GST #3. […] After mixing, the light produced by the solution was measured using a Turner TD 20/20 luminometer.
After assembly, the enzyme stock solutions were diluted 1:10 into 10 mM HEPES, pH 7.5 and the following additions were made to the reactions.
A 5 µl sample of the luciferol DMF solution was added to each of the reactions above and a timer was started upon the addition of the first luciferol/DMF solution to reaction 1. All reactions were kept at room temperature.
After incubating 5 minutes at room temperature, the light produced by these samples was measured using a Turner TD 20 luminometer.
To initiate the conversions, 5 µl of luciferol solution was added to reactions […], 6-9, and 11-15, and 10 µl of luciferol was added to reactions 5 and 10 and the tubes mixed after that addition. Immediately after luciferol addition to reaction 1, a timer was started and the time of luciferol addition to the other tubes noted. After mixing, reaction 11-15 were placed at 37°C.
After incubating 10 minutes at room temperature, the light produced by these samples was read using a Turner TD 20 luminometer (Table 18).
To initiate Step 1, 45 µl of enzyme and buffer were added to each well.
Solution A and Solution B are components of the NADPH Regeneration System (V9510, Promega Corp., Madison WI). […] Solution B contains 40 units/ml glucose-6-phosphate dehydrogenase in 5 mM citrate pH 5.5.

[4] = molecular target: T1, QuantiLum Luciferase (Photinus pyralis, UniProt P08659); test: Scaffolds: light emission of luciferin derivatives with QuantiLum luciferase alone, + Co A, + DTT, + Co A and DTT; format: biochemical, firefly
T1 construct: purchased Promega Corporation E170
T1 sequence (P08659 whole entry): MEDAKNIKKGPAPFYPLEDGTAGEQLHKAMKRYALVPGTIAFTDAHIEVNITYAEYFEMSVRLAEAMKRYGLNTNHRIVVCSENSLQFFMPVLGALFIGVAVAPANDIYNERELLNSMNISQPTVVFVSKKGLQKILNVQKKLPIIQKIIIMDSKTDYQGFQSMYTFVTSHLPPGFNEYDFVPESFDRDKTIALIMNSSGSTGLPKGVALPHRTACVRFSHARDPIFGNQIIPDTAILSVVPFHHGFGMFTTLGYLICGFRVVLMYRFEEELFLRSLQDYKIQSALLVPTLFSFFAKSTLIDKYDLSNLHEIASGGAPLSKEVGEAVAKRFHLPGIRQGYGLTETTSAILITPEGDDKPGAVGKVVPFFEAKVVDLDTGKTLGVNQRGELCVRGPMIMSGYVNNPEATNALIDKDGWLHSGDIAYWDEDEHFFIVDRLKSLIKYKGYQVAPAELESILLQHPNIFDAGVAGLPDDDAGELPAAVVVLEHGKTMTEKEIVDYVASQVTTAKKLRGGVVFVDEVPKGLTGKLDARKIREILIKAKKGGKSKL
Protocol: The DTT, Coenzyme A, and QuantiLum stock solutions are the same as those described herein.
This solution was diluted 1:1 with water to produce an enzyme solution labeled "No addition." This solution was diluted 1:1 with 400 mM DTT, pH 8.0 to produce a solution labeled +DTT. This solution was diluted 1:1 with 4 mM Coenzyme A to produce a solution labeled + Co A. Finally, this solution was diluted 1:1 with a solution having both 4 mM Coenzyme A and 400 mM DTT to produce a solution labeled +Co A & DTT.
50 µl samples of these solutions were placed in the wells of luminometer microtiter plates, row A to row G, respeutivly. Row H of the plates was given 50 µl of water.
Reactions in these plates were initiated by addition of 50 µl of solution containing QuantiLum luciferase using a 12 channel micropipette. The solutions added to the rows were: columns 1, 5, and 9 - no addition solution; columns 2, 6, and 10 - + Co A solution; columns 3, 7, and 11 + DTT solution, and; columns 4, 8, and 12 - + Co A and DTT solution. After addition of the enzyme solution to the first row on every plate, a timer was started. After addition of the enzyme solution to the last row on each plate, the plate was sealed and read on a Veritas luminometer.

In the case of `O=C(O)[C@H]1CSC(c2nc3ccc(OCCCl)cc3s2)=N1` [L' in-CEE], the “light values obtained upon addition of the diluted reaction samples into Steady Glo reagent” value (“light values obtained upon addition” for short) ([1]; + Co A & DTT, Time Sample Taken 0 min) is reported as 1745, the “light values obtained upon addition” value ([1]; + Co A & DTT, Time Sample Taken 60 min) is reported as 1319 and the “light values obtained upon addition” value ([1]; + Co A & DTT, Time Sample Taken 120 min) is reported as 1343. The “light values obtained upon addition” value ([1]; + Co A, Time Sample Taken 0 min) was 1127, the “light values obtained upon addition” value ([1]; + Co A, Time Sample Taken 60 min) was 1055 and the “light values obtained upon addition” value ([1]; + Co A, Time Sample Taken 120 min) was 770.5. For the same molecule, the “light values obtained upon addition” value ([1]; + DTT, Time Sample Taken 0 min) was 1168, the “light values obtained upon addition” value ([1]; + DTT, Time Sample Taken 60 min) was 501.5 and the “light values obtained upon addition” value ([1]; + DTT, Time Sample Taken 120 min) was 1478. For the same molecule, the “light values obtained upon addition” value ([1]; Alone, Time Sample Taken 0 min) was 1262, the “light values obtained upon addition” value ([1]; Alone, Time Sample Taken 60 min) was 1203 and the “light values obtained upon addition” value ([1]; Alone, Time Sample Taken 120 min) was 1273.

With `O=C(O)[C@H]1CSC(c2nc3ccc(OCc4ccc(OP(=O)(O)O)cc4)cc3s2)=N1` [AP-4, 6-(4-phosphoric acid benzylether) luciferin] the “Net Reading” value ([2]; # AP molecules 0) was 0, the “Avg Reading” value ([2]; # AP molecules 6) was 2714.67 and the “Net Reading” value ([2]; # AP molecules 6) was 89. The “light reading, Reaction 1” value ([2]; # AP molecules 6) was 2706, the “light reading, Reaction 2” value ([2]; # AP molecules 6) was 2807 and the “light reading, Reaction 3” value ([2]; # AP molecules 6) was 2631. The “Avg Reading” value ([2]; # AP molecules 60) was 2772.5, the “Net Reading” value ([2]; # AP molecules 60) was 148 and the “light reading, Reaction 1” value ([2]; # AP molecules 60) was 2920. For the same molecule, the “light reading, Reaction 2” value ([2]; # AP molecules 60) was 2795, the “light reading, Reaction 3” value ([2]; # AP molecules 60) was 2728 and the “light reading, Reaction 4” value ([2]; # AP molecules 60) was 2647. The “Avg Reading” value ([2]; # AP molecules 600) was 3079.8, the “Net Reading” value ([2]; # AP molecules 600) was 455 and the “light reading, Reaction 1” value ([2]; # AP molecules 600) was 3118. For the same molecule, the “light reading, Reaction 2” value ([2]; # AP molecules 600) was 3051, the “light reading, Reaction 3” value ([2]; # AP molecules 600) was 3345 and the “light reading, Reaction 4” value ([2]; # AP molecules 600) was 2805. For the same molecule, the “Avg Reading” value ([2]; # AP molecules 6,000) was 3185, the “Net Reading” value ([2]; # AP molecules 6,000) was 560 and the “light reading, Reaction 1” value ([2]; # AP molecules 6,000) was 3189. The “light reading, Reaction 2” value ([2]; # AP molecules 6,000) was 3144, the “light reading, Reaction 3” value ([2]; # AP molecules 6,000) was 3002 and the “light reading, Reaction 4” value ([2]; # AP molecules 6,000) was 3405. The “Avg Reading” value ([2]; # AP molecules 60,000) was 5685.3, the “Net Reading” value ([2]; # AP molecules 60,000) was 3060 and the “light reading, Reaction 1” value ([2]; # AP molecules 60,000) was 5956. For the same molecule, the “light reading, Reaction 2” value ([2]; # AP molecules 60,000) was 5641, the “light reading, Reaction 3” value ([2]; # AP molecules 60,000) was 5416 and the “light reading, Reaction 4” value ([2]; # AP molecules 60,000) was 5728. The “Avg Reading” value ([2]; # AP molecules 600,000) was 30658.5, the “Net Reading” value ([2]; # AP molecules 600,000) was 28034 and the “light reading, Reaction 1” value ([2]; # AP molecules 600,000) was 30042. The “light reading, Reaction 2” value ([2]; # AP molecules 600,000) was 31132, the “light reading, Reaction 3” value ([2]; # AP molecules 600,000) was 29781 and the “light reading, Reaction 4” value ([2]; # AP molecules 600,000) was 31679. For the same molecule, the “Avg Reading” value ([2]; # AP molecules 6,000,000) was 274510.5, the “Net Reading” value ([2]; # AP molecules 6,000,000) was 271886 and the “light reading, Reaction 1” value ([2]; # AP molecules 6,000,000) was 281115. For the same molecule, the “light reading, Reaction 2” value ([2]; # AP molecules 6,000,000) was 254693, the “light reading, Reaction 3” value ([2]; # AP molecules 6,000,000) was 265592 and the “light reading, Reaction 4” value ([2]; # AP molecules 6,000,000) was 296642. The “Avg Reading” value ([2]; # AP molecules 60,000,000) was 2394497, the “Net Reading” value ([2]; # AP molecules 60,000,000) was 2391872 and the “light reading, Reaction 1” value ([2]; # AP molecules 60,000,000) was 2639163. For the same molecule, the “light reading, Reaction 2” value ([2]; # AP molecules 60,000,000) was 2283882, the “light reading, Reaction 3” value ([2]; # AP molecules 60,000,000) was 2320675 and the “light reading, Reaction 4” value ([2]; # AP molecules 60,000,000) was 2334267. The “Avg Reading” value [3] was 2624.5, the “light reading, Reaction 1” value [3] was 2620 and the “light reading, Reaction 2” value [3] was 2735. For the same molecule, the “light reading, Reaction 3” value [3] was 2612 and the “light reading, Reaction 4” value [3] was 2531.

For `O=C(O)[C@H]1CSC(c2nc3ccc(OCCO)cc3s2)=N1` [2hydroxyethoxyluciferin ether], the light emission values ([4]; Derivative Conc. 1.07, Alone) was 8807, the light emission values ([4]; Derivative Conc. 1.07, Co A) was 13847 and the light emission values ([4]; Derivative Conc. 1.07, Co A + DTT) was 22105. It also gave a light emission values ([4]; Derivative Conc. 1.07, DTT) of 24491, a light emission values ([4]; Derivative Conc. 3.13, Alone) of 10769 and a light emission values ([4]; Derivative Conc. 3.13, Co A) of 14986. It also gave a light emission values ([4]; Derivative Conc. 3.13, Co A + DTT) of 32555, a light emission values ([4]; Derivative Conc. 3.13, DTT) of 36967 and a light emission values ([4]; Derivative Conc. 6.25, Alone) of 14686. The light emission values ([4]; Derivative Conc. 6.25, Co A) was 18532, the light emission values ([4]; Derivative Conc. 6.25, Co A + DTT) was 42815 and the light emission values ([4]; Derivative Conc. 6.25, DTT) was 48458. The light emission values ([4]; Derivative Conc. 12.5, Alone) was 19586, the light emission values ([4]; Derivative Conc. 12.5, Co A) was 21636 and the light emission values ([4]; Derivative Conc. 12.5, Co A + DTT) was 54630. The light emission values ([4]; Derivative Conc. 12.5, DTT) was 61882, the light emission values ([4]; Derivative Conc. 25, Alone) was 27356 and the light emission values ([4]; Derivative Conc. 25, Co A) was 28679. The light emission values ([4]; Derivative Conc. 25, Co A + DTT) was 67303, the light emission values ([4]; Derivative Conc. 25, DTT) was 76612 and the light emission values ([4]; Derivative Conc. 50, Alone) was 38444. It also gave a light emission values ([4]; Derivative Conc. 50, Co A) of 39320, a light emission values ([4]; Derivative Conc. 50, Co A + DTT) of 87170 and a light emission values ([4]; Derivative Conc. 50, DTT) of 98407. For the same molecule, the light emission values ([4]; Derivative Conc. 100, Alone) was 53804, the light emission values ([4]; Derivative Conc. 100, Co A) was 52640 and the light emission values ([4]; Derivative Conc. 100, Co A + DTT) was 94724. For the same molecule, the light emission values ([4]; Derivative Conc. 100, DTT) was 128249.
